The NIST ThermoML archive (doi:10.1016/j.jct.2012.10.008)
Numbers after ± are expanded uncertainties.

Experiment: xn = mol fraction of the nth substance listed
Details: 101 kPa, Liquid; for viscosity: Falling or rolling sphere viscometry; for mass density: Vibrating tube method

CCCC[NH3+].O=[N+]([O-])[O-] [n-butylammonium nitrate] + CCCCO
Details | mass density, 293.15 K [kg/m3] | mass density, 298.15 K [kg/m3] | mass density, 303.15 K [kg/m3] | mass density, 308.15 K [kg/m3] | mass density, 313.15 K [kg/m3] | viscosity, 293.15 K [mPa·s] | viscosity, 298.15 K [mPa·s] | viscosity, 303.15 K [mPa·s] | viscosity, 308.15 K [mPa·s] | viscosity, 313.15 K [mPa·s]
x1 = 0.1004 | 851.35 ± 0.18 | 847.7 ± 0.18 | 844.02 ± 0.18 | 840.32 ± 0.18 | 836.6 ± 0.18 | 5.242 ± 0.045 | 4.554 ± 0.039 | 3.985 ± 0.034 | 3.506 ± 0.03 | 3.099 ± 0.026
x1 = 0.1999 | 888.16 ± 0.29 | 884.59 ± 0.29 | 881 ± 0.29 | 877.4 ± 0.29 | 873.79 ± 0.29 | – | 6.852 ± 0.067 | 5.961 ± 0.058 | 5.217 ± 0.051 | 4.592 ± 0.045
x1 = 0.2993 | 922.05 ± 0.53 | 918.6 ± 0.52 | 915.12 ± 0.52 | 911.54 ± 0.52 | 908.03 ± 0.52 | 11.36 ± 0.13 | 9.747 ± 0.11 | 8.447 ± 0.096 | 7.302 ± 0.083 | 6.344 ± 0.072
x1 = 0.3992 | 953.58 ± 0.88 | 950.14 ± 0.88 | 946.7 ± 0.87 | 943.25 ± 0.87 | 939.81 ± 0.86 | 17.51 ± 0.23 | 14.95 ± 0.2 | 12.76 ± 0.17 | 11.03 ± 0.15 | 9.601 ± 0.13
x1 = 0.4955 | 982.07 ± 1.4 | 978.69 ± 1.4 | 975.31 ± 1.3 | 971.93 ± 1.3 | 968.56 ± 1.3 | 24.22 ± 0.37 | 20.34 ± 0.31 | 17.34 ± 0.26 | 14.86 ± 0.23 | 12.88 ± 0.2
x1 = 0.6508 | 1024.4 ± 2.4 | 1021.11 ± 2.4 | 1017.81 ± 2.4 | 1014.53 ± 2.4 | 1011.26 ± 2.4 | 38.67 ± 0.71 | 31.95 ± 0.59 | 26.79 ± 0.49 | 22.66 ± 0.42 | 19.51 ± 0.36
x1 = 0.801 | 1061.11 ± 3.9 | 1057.88 ± 3.9 | 1054.67 ± 3.9 | 1051.47 ± 3.9 | 1048.29 ± 3.8 | 60.58 ± 1.3 | 49.4 ± 1.1 | 40.82 ± 0.89 | 34.2 ± 0.74 | 28.96 ± 0.63
x1 = 0.8998 | 1083.71 ± 5.2 | 1080.52 ± 5.1 | 1077.34 ± 5.1 | 1074.19 ± 5.1 | 1071.05 ± 5 | 83.12 ± 2.4 | 68.14 ± 1.7 | 56.15 ± 1.3 | 46.69 ± 1.1 | 39.11 ± 0.93
x1 = 1 | 1104.68 ± 6.6 | 1101.52 ± 6.6 | 1098.38 ± 6.5 | 1095.26 ± 6.5 | 1092.17 ± 6.5 | 111.35 ± 4.1 | 89.95 ± 2.9 | 73.04 ± 2.1 | 60.25 ± 1.6 | 50.12 ± 1.3

CCCC[NH3+].O=[N+]([O-])[O-] [n-butylammonium nitrate] + CCO
Details | mass density, 293.15 K [kg/m3] | mass density, 298.15 K [kg/m3] | mass density, 303.15 K [kg/m3] | mass density, 308.15 K [kg/m3] | mass density, 313.15 K [kg/m3] | viscosity, 293.15 K [mPa·s] | viscosity, 298.15 K [mPa·s] | viscosity, 303.15 K [mPa·s] | viscosity, 308.15 K [mPa·s] | viscosity, 313.15 K [mPa·s]
x1 = 0.0995 | 858.45 ± 0.18 | 854.53 ± 0.18 | 850.59 ± 0.18 | 846.63 ± 0.18 | 842.66 ± 0.19 | 2.5 ± 0.021 | 2.251 ± 0.019 | 2.036 ± 0.017 | 1.846 ± 0.016 | 1.682 ± 0.014
x1 = 0.1997 | 910.07 ± 0.3 | 906.36 ± 0.3 | 902.64 ± 0.3 | 898.9 ± 0.3 | 895.16 ± 0.3 | 4.379 ± 0.043 | 3.895 ± 0.038 | 3.486 ± 0.034 | 3.134 ± 0.031 | 2.827 ± 0.028
x1 = 0.2999 | 951.56 ± 0.55 | 947.99 ± 0.55 | 944.41 ± 0.54 | 940.85 ± 0.54 | 937.28 ± 0.54 | 7.388 ± 0.084 | 6.633 ± 0.076 | 5.868 ± 0.067 | 5.192 ± 0.059 | 4.591 ± 0.052
x1 = 0.3998 | 985.07 ± 0.93 | 981.61 ± 0.92 | 978.16 ± 0.92 | 974.71 ± 0.91 | 971.27 ± 0.91 | 12.29 ± 0.16 | 10.67 ± 0.14 | 9.285 ± 0.12 | 8.205 ± 0.11 | 7.25 ± 0.096
x1 = 0.5005 | 1012.9 ± 1.5 | 1009.57 ± 1.4 | 1006.2 ± 1.4 | 1003.2 ± 1.4 | 999.76 ± 1.4 | 18.53 ± 0.28 | 15.89 ± 0.24 | 13.78 ± 0.21 | 12.04 ± 0.18 | 10.57 ± 0.16
x1 = 0.6501 | 1047.63 ± 2.6 | 1044.37 ± 2.5 | 1041.1 ± 2.5 | 1037.86 ± 2.5 | 1034.62 ± 2.5 | 32.66 ± 0.6 | 27.42 ± 0.5 | 23.15 ± 0.42 | 19.83 ± 0.36 | 17.12 ± 0.31
x1 = 0.8003 | 1075.57 ± 4 | 1072.36 ± 4 | 1069.17 ± 4 | 1066 ± 4 | 1062.84 ± 3.9 | 56.97 ± 1.2 | 46.57 ± 1 | 38.82 ± 0.84 | 32.55 ± 0.7 | 27.74 ± 0.6
x1 = 0.8989 | 1090.94 ± 5.2 | 1087.76 ± 5.2 | 1084.6 ± 5.2 | 1081.46 ± 5.1 | 1078.34 ± 5.1 | 79.51 ± 2.2 | 65.34 ± 1.6 | 53.93 ± 1.2 | 44.86 ± 1.1 | 37.86 ± 0.9
x1 = 1 | 1104.68 ± 6.6 | 1101.52 ± 6.6 | 1098.38 ± 6.5 | 1095.26 ± 6.5 | 1092.17 ± 6.5 | 111.35 ± 4.1 | 89.95 ± 2.9 | 73.04 ± 2.1 | 60.25 ± 1.6 | 50.12 ± 1.3
